From US4061645A, “2-Trichloromethyl-5-methylsulfinyl-1,3,4-thiadiazole” (Schering Aktiengesellschaft, priority 1972, dated 1977)
Read-outs that look alike come from different tables or passages of the source.

Columns and labels:
Pythium ultimum [1] = assay: Limit concentration of soil-fungicidal effectiveness, Pythium ultimum, infested soil seeded with peas (Example 1); assay type: in vivo; details: 20 to 23 days, 22°-25° C
Description: Limit concentrations of the soil-fungicidal effectiveness at homogeneous mixture of the products with the infested soil. Basic condition in the evaluation are a sound root formation without fungus necroses and germination of the seed of at least 90% compared with the result obtained in steamed soil. Per concentration there were seeded 25 grains of peas of the variety "Miracle of Kelvedon" (marrow pea) without a waiting period. The cultivation time in the tests was 20 to 23 days at a temperature of 22°-25° C. Four commercial products were included in the test series.
Pythium ultimum: -- Steamed compost soil was inoculated with mycelium of Pythium ultimum

Rhizoctonia solani [2] = assay: Limit concentration of soil-fungicidal effectiveness, Rhizoctonia solani, infested soil seeded with peas (Example 1); assay type: in vivo; details: soil, 480 h, read-out: Limit concentration of the fungicidal effectiveness
Method in brief: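 Compound mixed homogeneously into steamed compost soil inoculated with Rhizoctonia solani mycelium, and 25 marrow pea seeds ("Miracle of Kelvedon") sown per concentration without a waiting period. Grown 20 to 23 days at 22°-25° C. Limit concentration is the lowest giving sound, necrosis-free roots and at least 90% germination relative to steamed soil.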

Rhizoctonia solani [3] = assay: Rhizoctonia solani infested compost soil, marrow peas (Example 3); assay type: in vivo; details: for Weight of fresh plant / Root evaluation (1-4): 3 weeks; for Number of sound peas after 3 wks.: of 25 grains
Text: Steamed compost soil was inoculated with mycelium of Rhizoctonia solani. After homogeneous mixture of the products with the infested soil, the products were present in the form of 20% powder preparations, the seeding of 25 grains of marrow peas of the variety "Miracle of Kelvedon" per concentration was effected without waiting period in clay dishes holding 1 liter of soil. The table lists the number of germinated sound peas, the weight of the fresh plant, and a root evaluation after a cultivation period of three weeks at 22°-25° C.

Pythium ultimum [4] = assay: Pythium ultimum infested compost soil, marrow peas (Example 2); assay type: in vivo; details: for Number of sound peas after 3 wks.: of 25 grains
Text: Steamed compost soil was inoculated with mycelium of Pythium ultimum.

[5] = tested on: Fusarium oxysporum f. callistephi; assay: Fusarium infested compost soil, Callistephus chinesis seedlings (Example 5); assay type: in vivo; details: of 4 seedlings
Text: Steamed compost soil was inoculated with a spore suspension of Fusarium oxysporum f. callistephi. After homogeneous mixture of the products with the infested soil, the products were present as 20% powder preparations, and after a waiting period of 8 days, there were set out per concentration 4 seedlings of Callistephus chinesis, master aster "Sun Ray" as host plants.

Asperqilus niger = assay: Agar test (Example 7), Aspergillus; assay type: cell-based; details: 10 ppm; 5 days at 22° C; control 100
Method in brief: (§1)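 Compound mixed into sterilised 2% malt extract/1.5% agar before solidification at 10 ppm. Plates inoculated with 100 spores of each fungus; colony diameter (mm) measured after five days at 22° C.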

Meloidogyne incognita = assay: Nematocidal action, infested compost soil, cucumber seeds (Example 8); assay type: in vivo; details: 30 days
Description: The products as 20% powder preparations were homogeneously admixed with a compost soil heavily infested by root gal nematodes. Without a waiting period, 20 cucumber seeds per concentration were seeded. After a cultivation time of 30 days at a temperature of 23°-25° C, the nematocidal action was evaluated by counting the root galls formed in the waterbath. The following table states the reduction of attack in percent. In the control, an average of 90 root galls per seedling had formed.

Damping-off Fungi = assay: Cotton seed disinfection, normal compost soil (Example 6); assay type: in vivo; details: 100 mg active ingr. per kg of seed; 10% formulation; 15 days
Description: Cotton seeds disinfected with 10% formulations were seeded in normal compost soil (Damping-off Fungi), 25 grains per concentration. After a cultivation time of 15 days at 22°-25° C, the number of germinated sound cotton seedlings and their weight as fresh plants were determined.

Stemphylium ilicis = assay: Agar test (Example 7), Stemphylium; assay type: cell-based; details: 10 ppm; 5 days at 22° C; control 100
Method in brief: as §1

Pyrenochaeta lycopersici = assay: Control of Pyrenochaeta lycopersici, corky root disease of the tomato, open field (Example 9); assay type: in vivo; details: 10% granulate
Text: Control of Pyrenochaeta lycopersici, corky root disease of the tomato.
On a naturally invested open field area, 2-dichloromethyl-5-methylsulfonyl-1,3,4-thiadiazole was scattered as a 10% granulate formulation and hoed in 20 cm deep. […] After a reaction period of three weeks, tomato plants of the variety "Ronald-M" which were 8 weeks old were set out at a distance from each other of 50 × 70 cm. The harvest results indicated in the table are average values of 40 plants per lot and refer to harvested ripe tomatoes.

Botrytis cinerea = assay: Agar test (Example 7), Botrytis; assay type: cell-based; details: 10 ppm; 5 days at 22° C; control 100
Method in brief: as §1

[6] = tested on: Colletotrichum gloeosporioides; assay: Agar test (Example 7), Colletotrichum; assay type: cell-based; details: 10 ppm; 5 days at 22° C; control 100
Method in brief: as §1

Pythium ultimum [7] = assay: Fungistatic and fungicidal action on Pythium ultimum with varying active ingredient percentages (Example 4); assay type: in vivo
Text: Comparison of the fungistatic and fungicidal action on Pythium ultimum when using preparations with varyng active ingredient percentages on siliceous clay. Steamed compost soil was inoculated with mycelium of Pythium ultimum. After forming a homogeneous mixture of the products with the infested soil, […], the seeding of 25 grains of marrow peas of the variety "Miracle of Kelvedon" per concentration in clay dishes holding 1 liter of soil followed without a waiting period. In the table is stated the fresh number of germinated sound peas, the weight of the fresh plant, and a root evaluation after a cultivation period of three weeks at 22°-25° C.

Helminthosporium sativum = assay: Agar test (Example 7), Helminthosporium; assay type: cell-based; details: 10 ppm; 5 days at 22° C; control 100
Method in brief: as §1

[8] = 10 mg active ingr. per liter of soil
[9] = 20 mg active ingr. per liter of soil
[10] = 30 mg active ingr. per liter of soil
[11] = 40 mg active ingr. per liter of soil
[12] = 200 mg active ingr. per liter of soil, 3 weeks
[13] = 50 mg active ingredient per liter of soil
[14] = 100 mg active ingredient per liter of soil
[15] = 10 g active ingr. per square meter
[16] = 20 g active ingr. per square meter
[17] = 5% formulation, 6 mg active ingr. per liter of soil
[18] = 5% formulation, 10 mg active ingr. per liter of soil
[19] = 10% formulation, 6 mg active ingr. per liter of soil
[20] = 10% formulation, 10 mg active ingr. per liter of soil
[21] = 20% formulation, 6 mg active ingr. per liter of soil
[22] = 20% formulation, 10 mg active ingr. per liter of soil
[23] = 50 mg active ingr. per liter of soil
[24] = 100 mg active ingr. per liter of soil

## COc1cc(Cl)c(OC)cc1Cl [1,4-dichloro-2,5-dimethoxy-benzene, 1,4-dichloro-2,5-dimethoxybenzene, reference compound]
Pythium ultimum [1]
  Limit concentration of the fungicidal effectiveness: insufficient
Rhizoctonia solani [2]
  minimal effective concentration: 30 µg/mL
Rhizoctonia solani [3]; [8]
  Weight of fresh plant: 0 g
  Number of sound peas after 3 wks.: 0
Rhizoctonia solani [3]; [9]
  Weight of fresh plant: 0 g
  Number of sound peas after 3 wks.: 0
Rhizoctonia solani [3]; [10]
  Root evaluation (1-4): 4
  Weight of fresh plant: 18 g
  Number of sound peas after 3 wks.: 21
Rhizoctonia solani [3]; [11]
  Root evaluation (1-4): 4
  Weight of fresh plant: 18 g
  Number of sound peas after 3 wks.: 22
Pythium ultimum [4]; [12]
  Root evaluation (1-4): 1
  Weight of fresh plant: 1 g
Pythium ultimum [4]; 200 mg active ingr. per liter of soil
  Number of sound peas after 3 wks.: 2
[5]; [13]
  Number of attacked plants after 3 weeks: 4
[5]; [14]
  Number of attacked plants after 3 weeks: 4
[5]; 200 mg active ingredient per liter of soil
  Number of attacked plants after 3 weeks: 4

## CS(=O)(=O)c1nnc(C(Cl)Cl)s1 [Compound 17, 2-dichloromethyl-5-methylsulfonyl-1,3,4-thiadiazole]
Asperqilus niger
  diameter of the colonies: 0 mm
Meloidogyne incognita; 40 mg per liter of soil
  Nematocidal action in % (reduction of attack): 90%
Meloidogyne incognita; 60 mg per liter of soil
  Nematocidal action in % (reduction of attack): 94%
Damping-off Fungi
  Sound plants in %: 100%
  Weight of fresh plant: 23 g
Stemphylium ilicis
  diameter of the colonies: 0 mm
Pyrenochaeta lycopersici; [15]
  Tomatoes per plant, relative to 0 g: 159%
  Weight of single tomato, relative to 0 g: 110%
  Yield per plant, relative to 0 g: 171%
Pyrenochaeta lycopersici; [16]
  Tomatoes per plant, relative to 0 g: 165%
  Weight of single tomato, relative to 0 g: 130%
  Yield per plant, relative to 0 g: 213%
Botrytis cinerea
  diameter of the colonies: 0 mm
[6]
  diameter of the colonies: 0 mm
Rhizoctonia solani [2]; 20 to 23 days, 22°-25° C
  minimal effective concentration: 20 µg/mL
Rhizoctonia solani [3]; [8]
  Weight of fresh plant: 0 g
  Number of sound peas after 3 wks.: 0
Rhizoctonia solani [3]; [9]
  Weight of fresh plant: 14 g
  Number of sound peas after 3 wks.: 23
Rhizoctonia solani [3]; [10]
  Weight of fresh plant: 14 g
  Number of sound peas after 3 wks.: 22
Pythium ultimum [7]; [17]
  Number of sound peas after 3 weeks: 12
  Root evaluation (1-4): 1
  Weight of fresh plant: 9 g
Pythium ultimum [7]; [18]
  Number of sound peas after 3 weeks: 24
  Root evaluation (1-4): 4
  Weight of fresh plant: 20 g
Pythium ultimum [7]; [19]
  Number of sound peas after 3 weeks: 24
  Root evaluation (1-4): 1
  Weight of fresh plant: 15 g
Pythium ultimum [7]; [20]
  Number of sound peas after 3 weeks: 22
  Root evaluation (1-4): 4
  Weight of fresh plant: 24 g
Pythium ultimum [7]; [21]
  Number of sound peas after 3 weeks: 22
  Root evaluation (1-4): 2
  Weight of fresh plant: 17 g
Pythium ultimum [7]; [22]
  Number of sound peas after 3 weeks: 24
  Root evaluation (1-4): 4
  Weight of fresh plant: 16 g
Pythium ultimum [4]; 10 mg active ingr. per liter of soil, 3 weeks
  Weight of fresh plant: 24 g
Pythium ultimum [4]; [8]
  Number of sound peas after 3 wks.: 23
Pythium ultimum [4]; 20 mg active ingr. per liter of soil, 3 weeks
  Weight of fresh plant: 22 g
Pythium ultimum [4]; [9]
  Number of sound peas after 3 wks.: 24
Pythium ultimum [4]; 30 mg active ingr. per liter of soil, 3 weeks
  Weight of fresh plant: 26 g
Pythium ultimum [4]; [10]
  Number of sound peas after 3 wks.: 24
Helminthosporium sativum
  diameter of the colonies: 0 mm
[5]; [13]
  Number of attacked plants after 3 weeks: 0
[5]; [14]
  Number of attacked plants after 3 weeks: 0

## O=[N+]([O-])c1c(Cl)c(Cl)c(Cl)c(Cl)c1Cl [Pentachloronitrobenzene, pentachloronitrobenzene, reference compound]
Pythium ultimum [1]
  Limit concentration of the fungicidal effectiveness: insufficient
Rhizoctonia solani [2]
  minimal effective concentration: 75 µg/mL
Rhizoctonia solani [3]; [23]
  Weight of fresh plant: 4 g
  Number of sound peas after 3 wks.: 4
Rhizoctonia solani [3]; [24]
  Weight of fresh plant: 15 g
  Number of sound peas after 3 wks.: 25
